Measurements reported in US20240287046A1, “COMPOUNDS AND RADIOLIGANDS FOR TARGETING NEUROTENSIN RECEPTOR AND USES THEREOF” (Full-Life Technologies HK Limited, priority 2022, published 2024).

Legend:
[1] = tested on: pancreatic cancer patients; conditions: ^177Lu-chelated form; small number of pancreatic cancer patients; cited from earlier work
[2] = tested on: ASPC-1 tumor-bearing mice; experiment: Biodistribution of radionuclide labeled complexes in ASPC-1 tumor-bearing mice; format: in vivo, BALB/c nude mice; conditions: ^177Lu-labeled complex
How it was run: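 Radiolabeled compound (~30-50 μCi, ~1.11-1.85 MBq, specific activity 30-250 μCi/nmol) was injected i.v. via tail vein into nude mice carrying 0.05-0.50 g subcutaneous NTSR-1-positive human tumors. At set times, tissues were collected, weighed and γ-counted; % ID and % ID/g were calculated.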

human NTSR-1 [3] = target: T1, human NTSR-1 (Homo sapiens (Human), UniProt P30989); experiment: FLIPR assay, inhibition of Neurotensin-induced intracellular-calcium mobilization; format: cell-based; conditions: HEK293 cells stably expressing human NTSR-1, mean; read-out: IC50 (nM) in FLIPR Assays
T1 sequence (P30989 whole entry): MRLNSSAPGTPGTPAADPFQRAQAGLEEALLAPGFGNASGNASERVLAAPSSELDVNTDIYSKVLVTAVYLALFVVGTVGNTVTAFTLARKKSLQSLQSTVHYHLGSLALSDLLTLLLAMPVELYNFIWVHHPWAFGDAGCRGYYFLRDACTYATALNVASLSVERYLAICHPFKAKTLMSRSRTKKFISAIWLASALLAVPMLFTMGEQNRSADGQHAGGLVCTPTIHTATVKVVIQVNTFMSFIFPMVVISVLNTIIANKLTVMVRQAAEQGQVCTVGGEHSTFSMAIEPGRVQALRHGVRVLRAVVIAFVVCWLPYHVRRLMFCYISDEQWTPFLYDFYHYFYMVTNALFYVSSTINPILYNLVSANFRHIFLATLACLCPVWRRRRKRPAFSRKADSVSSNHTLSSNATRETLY
Description: Binding affinities of the representative compounds were also evaluated by FLIPR assay. Neurotensin receptor 1 belongs to the G-protein coupled receptors (GPCR) family. Activation of NTSR-1 by its ligand Neurotensin can induce intracellular-calcium mobilization. In FLIPR assay, the test compound and Neurotensin were incubated together with cells expressing NTSR-1 to measure inhibition of the intracellular-calcium mobilization by the test compound so that to evaluate its binding affinity.
Briefly, HEK293 cells stably expressing human NTSR-1 were plated in 384-well plates. 20 ul cell suspension at a concentration of 10×10^5 per ml was seeded in each well and incubated at 37° C. 5% CO2 overnight. Then the cells in each well were mixed with 20 ul probenecid assay buffer, 20 ul 8 uM Fluo-4 Direct™ Loading Buffer, 6×EC80 of Neurotensin and 10 μl of the diluted test compound, and incubated at 37° C. 5% CO2 for 50 min followed by incubation at room temperature for 10 min. The plate was then subject to FLIPR analysis.

human NTSR-1 [4] = target: T1, human NTSR-1; experiment: radioligand competitive binding assay using ^177Lu labeled C-1 as reference radioligand
Description: The binding affinities of test compounds were determined by a radioligand competitive binding assay using ^177Lu labeled C-1 as the reference radioligand.
Briefly, 100 μL HT-29 cells expressing human NTSR-1 at a density of 1˜2×10^6 cells/mL were mixed with binding buffer (RPMI-1640 medium supplemented with 0.25% bovine serum albumin) in each well of the 96-well filter plate (Millipore). Then the cells in each well were incubated with ^177Lu—C-1 (0.55 μCi/well) and the test compound under 37° C. for 1 hr (n=3). After incubation, unbound ^177Lu—C-1 and the test compound in each well was removed by filtration using a Multiscreen vacuum manifold (Millipore) and the cells were further rinsed with the binding buffer for 5 times. The cells from each well were then collected and radioactivity of the cells in each well was individually measured by y counter (2480 WIZARD2, PerkinElmer). The best-fit IC50 value of test compounds (inhibitory concentration when 50% of the bound ^177Lu—C-1 on cells were displaced) were calculated by fitting the data with nonlinear regression using GraphPad Prism 8.0.1.

[5] = tested on: ASPC-1 tumor-bearing mice; experiment: PET/CT imaging of ^68Ga-labeled complexes; format: in vivo; conditions: over 180 minutes
Description: ASPC-1 tumor-bearing mice were IV-injected with 150 μCi of ^68Ga-labeled compounds, anesthetized under 2% isoflurane/oxygen gas and placed on the scanner. PET images were acquired in one bed position for 10 min using an animal PET/SPECT/CT (Inliview-3000B). Whole-body PET images were acquired at 30, 60, 120 and 180 minutes after injection of the radiotracers.

Structure (SMILES) | tumor uptake of the radioligand [1] | AUC (0-72 h) ratio Tumor/Blood [2] | AUC (0-72 h) ratio Tumor/Kidney [2] | AUC (0-72 h) ratio Tumor/Liver [2] | AUC (0-72 h) ratio Tumor/Lung [2] | IC50 (human NTSR-1 [3]) | Relative Binding Affinity (human NTSR-1 [4]; Mean IC50 of C-1/Mean IC50 of the test compound) | potency relative to SR142948 (human NTSR-1 [4]; competitive radioligand binding assay using HT-29 cells) | tumor uptake/retention compared to ^68Ga—C-5 (PET/CT) ([5]; ASPC-1 tumor-bearing mice) | tumor to normal contrast compared to ^68Ga—C-5 (PET/CT) ([5]; such as tumor to liver)
COc1cccc(OC)c1-c1cc(C(=O)NC2(C(=O)O)C3CC4CC(C3)CC2C4)nn1-c1ccc(C(=O)N(C)CCCN(C)CCCN(C)C(=O)CN2CCN(CC(=O)O)CCN(CC(=O)O)CCN(CC(=O)O)CC2)cc1C(C)C (stereo not shown) [Compound C-2, 2,2′,2″-(10-(2-((3-((3-(4-(3-((2-carboxyadamantan-2-yl)carbamoyl)-5-(2,6-dimethoxyphenyl)-1H-pyrazol-1-yl)-3-isopropyl-N-methylbenzamido)propyl)(methyl)amino)propyl)(methyl)amino)-2-oxoethyl)-1,4,7,10-tetraazacyclododecane-1,4,7-triyl)triacetic acid, reference compound] | clearly observed | 9.0 | 8.80 | 7.61 | 14.2 | 45.4 nM | 7.2 | about 40% | – | –
COc1cccc(OC)c1-c1cc(C(=O)NC2(C(=O)O)C3CC4CC(C3)CC2C4)nn1-c1ccc(N(CCCN(C)C)C(=O)COCCOCCNC(=O)CN2CCN(CC(=O)[O-])CCN(CC(=O)[O-])CCN(CC(=O)[O-])CC2)cc1C(C)C.[68Ga+3] (stereo not shown) [^68Ga—I-6] | – | – | – | – | – | – | – | – | stronger tumor uptake/retention | better tumor to normal contrast
